Reference: patent publication US11945813B2, “5-substituted 4-amino-1H-benzo[c][1,2,6]thiadiazine 2,2-dioxides and formulations and uses thereof” (Firmenich Incorporated, priority 2018, dated 2024)

Columns and labels:
[1] = Sensory evaluation of inherent sweetness of test compound; type: in vivo, human; conditions: test compound alone at 10 ppm
Description: (§1) Test samples containing either a sweetener (sucrose or high-fructose corn syrup) alone or in combination with a test compound were presented in pairs to a group of panelists who were asked to determine which of the samples was sweeter. Subjects refrained from eating or drinking (except water) for at least 1 hour prior to the test. Subjects rinsed with water several times to clean the mouth. The samples within a paired comparison test were presented in a randomized, counterbalanced order. Panelists had up to a 1 minute delay between taste tests to clear the mouth of any tastes. Binomial probability tables were used to determine the probability of the correct number of responses occurring for each test at alpha-0.05.
(§2) Stock solutions of test compounds were prepared at 1000× final concentration with ethanol to ensure dispersion in solution. Test compound samples including sucrose were prepared by diluting the stock solutions in a low sodium buffer (0.952 g of KCl, 5.444 g of Na2HPO4, and 0.952 g of KH2PO4 in deionized ultrafiltered water) at pH 7.1 and containing sucrose. Test compound samples including high fructose corn syrup were prepared by diluting the stock solutions in the low sodium buffer at pH 2.8 (using citric acid to adjust the pH) and containing high fructose corn syrup. Control samples were balanced to 0.1% ethanol final.
Compound 200 was also tested for inherent sweetness. […]

[2] = Sensory experiments: paired comparison of sweetener alone vs sweetener plus test compound; type: in vivo, human; conditions: panelists
Description: as §1
as §2, with “final. […]” for “final.”

T1R2/T1R3 taste receptor = molecular target: T1, T1R2/T1R3 taste receptor (Homo sapiens, UniProt Q8TE23); assay: Receptor-based assay: sweetener EC50 alone and with test compound (enhancement ratio); type: cell-based; conditions: for Sucralose Enhancement EC50 Ratio: sweetener sucralose; for Sucrose Enhancement EC50 Ratio: sweetener sucrose
T1 sequence (Q8TE23 20-839): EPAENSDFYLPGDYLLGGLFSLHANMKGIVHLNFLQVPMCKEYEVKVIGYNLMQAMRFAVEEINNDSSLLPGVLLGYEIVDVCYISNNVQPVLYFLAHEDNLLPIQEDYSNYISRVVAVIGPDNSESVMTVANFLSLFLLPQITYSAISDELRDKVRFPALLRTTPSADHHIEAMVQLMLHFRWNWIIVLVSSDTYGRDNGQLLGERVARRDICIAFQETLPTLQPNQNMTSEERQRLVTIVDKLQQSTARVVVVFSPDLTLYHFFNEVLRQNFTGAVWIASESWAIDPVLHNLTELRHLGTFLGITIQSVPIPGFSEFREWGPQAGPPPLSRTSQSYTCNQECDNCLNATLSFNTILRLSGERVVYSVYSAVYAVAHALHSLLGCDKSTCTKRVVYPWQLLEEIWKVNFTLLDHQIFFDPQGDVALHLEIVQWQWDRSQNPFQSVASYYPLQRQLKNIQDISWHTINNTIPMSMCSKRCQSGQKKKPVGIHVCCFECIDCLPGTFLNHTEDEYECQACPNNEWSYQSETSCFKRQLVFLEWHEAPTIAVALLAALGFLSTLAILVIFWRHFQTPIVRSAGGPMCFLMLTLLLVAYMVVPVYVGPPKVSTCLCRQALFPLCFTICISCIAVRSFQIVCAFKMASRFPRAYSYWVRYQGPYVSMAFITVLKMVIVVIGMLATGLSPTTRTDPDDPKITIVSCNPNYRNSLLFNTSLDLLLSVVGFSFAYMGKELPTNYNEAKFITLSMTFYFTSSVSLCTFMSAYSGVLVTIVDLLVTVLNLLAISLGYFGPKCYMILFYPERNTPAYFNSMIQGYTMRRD
T1 sequence (Q7RTX0 21-852 partner): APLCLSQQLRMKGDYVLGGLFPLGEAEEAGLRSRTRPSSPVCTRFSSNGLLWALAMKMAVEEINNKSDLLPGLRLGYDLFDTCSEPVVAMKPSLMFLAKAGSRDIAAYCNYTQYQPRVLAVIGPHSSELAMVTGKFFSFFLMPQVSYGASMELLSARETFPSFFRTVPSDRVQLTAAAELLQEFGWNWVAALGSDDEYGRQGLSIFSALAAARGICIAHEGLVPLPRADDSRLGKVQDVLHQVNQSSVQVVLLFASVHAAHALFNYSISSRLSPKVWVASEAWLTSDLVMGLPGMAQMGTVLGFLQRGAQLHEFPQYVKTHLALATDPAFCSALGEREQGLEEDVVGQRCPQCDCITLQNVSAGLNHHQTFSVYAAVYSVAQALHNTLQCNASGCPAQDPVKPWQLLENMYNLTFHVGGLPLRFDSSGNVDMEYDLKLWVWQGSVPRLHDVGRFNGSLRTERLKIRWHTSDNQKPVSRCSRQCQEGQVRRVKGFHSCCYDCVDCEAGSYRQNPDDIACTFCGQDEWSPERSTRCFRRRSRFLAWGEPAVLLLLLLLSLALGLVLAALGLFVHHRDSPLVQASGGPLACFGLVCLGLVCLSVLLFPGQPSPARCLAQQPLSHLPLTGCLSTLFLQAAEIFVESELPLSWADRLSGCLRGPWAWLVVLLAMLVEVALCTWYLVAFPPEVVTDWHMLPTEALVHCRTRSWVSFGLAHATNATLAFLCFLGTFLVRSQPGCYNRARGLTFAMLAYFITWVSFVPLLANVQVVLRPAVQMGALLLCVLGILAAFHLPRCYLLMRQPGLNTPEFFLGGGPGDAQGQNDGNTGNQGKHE
Method in brief: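 Sucrose, sucralose or fructose EC50 measured on human T1R2/T1R3, alone and with 3, 10 or 50 μM test compound. Enhancement is the EC50 ratio without/with compound, binned A >20, B 10-20, C >1 to <10.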

CC(C)(COc1cccc2c1C(N)=NS(=O)(=O)N2)Nc1ccnc(-n2ccnc2)n1 [Compound 200, 4-amino-5-(2-((2-(1H-imidazol-1-yl)pyrimidin-4-yl)amino)-2-methylpropoxy)1H-benzo[c][1,2,6]thiadiazine 2,2-dioxide]
inherent sweetness intensity, compared with sucrose solution [1]: < 1.5 % sucrose
sweetness intensity of the combination of test compound and 6% HFCS, compared with HFCS-alone ([2]; test compound at 10 ppm or less with 6% HFCS, low sodium buffer pH 2.8): greater than 6 % HFCS
Equivalent Sucrose Conc. ([2]; test compound at 10 ppm or less with 6% sucrose, low sodium buffer pH 7.1): A (An “A” value indicates an equivalent sucrose concentration of 10% or greater)
Sucralose Enhancement EC50 Ratio (T1R2/T1R3 taste receptor; 10 μM test compound): A (An “A” value indicates an enhancement ratio of greater than 20)
Sucrose Enhancement EC50 Ratio (T1R2/T1R3 taste receptor; 3 μM test compound): C (A “C” value indicates an enhancement ratio greater than 1 and less than 10)
Sucrose Enhancement EC50 Ratio (T1R2/T1R3 taste receptor; 10 μM test compound): C (A “C” value indicates an enhancement ratio greater than 1 and less than 10)
Sucrose Enhancement EC50 Ratio (T1R2/T1R3 taste receptor; 50 μM test compound): C (A “C” value indicates an enhancement ratio greater than 1 and less than 10)

NC1=NS(=O)(=O)Nc2cccc(OC[C@H]3CCCN(c4cc(C(=O)NCC5CCCCC5)ccn4)C3)c21 [Compound 618]
Fructose Enhancement EC50 Ratio (T1R2/T1R3 taste receptor; sweetener fructose, 50 μM test compound): C (A “C” value indicates an enhancement ratio greater than 1 and less than 10)
Sucralose Enhancement EC50 Ratio (T1R2/T1R3 taste receptor; 10 μM test compound): B (A “B” value indicates an enhancement ratio from 10 to 20)
Sucralose Enhancement EC50 Ratio (T1R2/T1R3 taste receptor; 50 μM test compound): B (A “B” value indicates an enhancement ratio from 10 to 20)
Sucrose Enhancement EC50 Ratio (T1R2/T1R3 taste receptor; 3 μM test compound): C (A “C” value indicates an enhancement ratio greater than 1 and less than 10)
Sucrose Enhancement EC50 Ratio (T1R2/T1R3 taste receptor; 10 μM test compound): C (A “C” value indicates an enhancement ratio greater than 1 and less than 10)
Sucrose Enhancement EC50 Ratio (T1R2/T1R3 taste receptor; 50 μM test compound): C (A “C” value indicates an enhancement ratio greater than 1 and less than 10)
